Where two headings read alike, the source gives them in different places.
Assays:
[1] = system: MDA-MB-231 human breast cancer cells; details: MDA-MB-231 cells; previously reported in Ramalingam S, et al.; read-out: GI50s MDA-MB-231; cited from earlier work
[2] = system: MDA-MB-468 human breast cancer cells; details: MDA-MB-468 cells; previously reported in Ramalingam S, et al.; read-out: GI50s MDA-MB-468; cited from earlier work
[3] = system: SKBR-3 human breast cancer cells; details: SKBR-3 cells; previously reported in Ramalingam S, et al.; read-out: GI50s SKBR-3; cited from earlier work
[4] = system: MCF-7 human breast cancer cells; assay: MTT cell proliferation assay, MCF-7; type: cell-based; details: Homo sapiens, MCF7; MCF-7 cells, MTT, SEM < 10%; read-out: GI50s MCF-7
From the text: (§1) MCF-7, MDA-MB-231, MDA-MB-468 and SKBR-3 human breast cancer cells and LNCaP, PC-3, and CWR22Rv1 human prostate carcinoma cells (American Type Culture Collection, Manassas, Va., USA) were maintained in RPMI 1640 media (Gibco-Life Technologies, Grand Island, N.Y., USA) supplemented with 10% fetal bovine serum and 1% penicillin/streptomycin. Western blotting was done as mentioned previously,^8, 13b using the following antibodies: AR, Bad, Bax, Bcl-2, eIF4E, Mnk1, Mnk-2, N-cadherin, PARP, peIF4E^ser209 purchased from Cell Signaling Technology, Danvers, Mass., USA. Anti-Mnk2 was purchased from Sigma-Aldrich and normal rabbit IgG, cyclin D1 was from Santa Cruz Biotechnology, CA, USA.
(§2) Cells were plated (2500 cells/well) in 96 well plates and treated with or without specified compounds as described previously.^8a, 12b
(§3) The clinically relevant retinoids, ATRA and 4-HPR and the Mnk inhibitor, cercosporamide were used as comparators in the assays.

[5] = system: MDA-MB-231 human breast cancer cells; assay: MTT cell proliferation assay, MDA-MB-231; type: cell-based; details: MDA-MB-231 cells, SEM < 10%, read-out: GI50s MDA-MB-231
From the text: as §1, §2, §3

[6] = system: MDA-MB-468 human breast cancer cells; assay: MTT cell proliferation assay, MDA-MB-468; type: cell-based; details: MDA-MB-468 cells, SEM < 10%, read-out: GI50s MDA-MB-468
From the text: as §1, §2, §3

[7] = system: SKBR-3 human breast cancer cells; assay: MTT cell proliferation assay, SKBR-3; type: cell-based; details: SK-BR-3, SKBR-3 cells, SEM < 10%, read-out: GI50s SKBR-3
From the text: as §1, §2, §3

[8] = system: LNCaP human prostate carcinoma cells; assay: MTT cell proliferation assay, LNCaP; type: cell-based; details: SEM < 10%, read-out: GI50s LNCaP
From the text: as §1, §2, §3
(§4) The PC-3 cell line was the least sensitive to all the compounds tested.

[9] = system: CWR22Rv1 human prostate carcinoma cells; assay: MTT cell proliferation assay, CWR22Rv1; type: cell-based; details: SEM < 10%, read-out: GI50s CWR22Rv1
From the text: as §1, §2, §3, §4

[10] = system: PC-3 human prostate carcinoma cells; assay: MTT cell proliferation assay, PC-3; type: cell-based; details: PC-3 cells, SEM < 10%, read-out: GI50s PC-3
From the text: as §1, §2, §3, §4

[11] = system: Mnk1 and 2, peIF4E, eIF4E and cPARP; assay: Western blot of lysates from MCF-7, MDA-MB-231 and MDA-MB-468 cells; type: cell-based, human; details: MCF-7, MDA-MB-231, MDA-MB-468 cells, 24 hours
From the text: as §1
As we previously reported, the anti-proliferative effects of the 1st generation MNKDAs in BC cells was due to degradation of Mnk1/2 with subsequent depletion of peIF4E and induction of apoptosis.^8a To determine if these compounds modulate Mnk1/2 and related oncogenic proteins, the inventors performed western blot of lysates from MCF-7, MDA-MB-231 and MDA-MB-468 human breast cancer cells treated with Compounds 16, 20, and 22, or with vehicle (DMSO, negative control), or Compound 6 (positive control). Equal protein concentrations from MCF-7 (FIG. 3A), MDA-MB-231 (FIG. 3B) and MDA-MB-468 (FIG. 3C) cells treated for 24 hours with Compounds 16, 20 and 22 at the various concentrations as indicated and Compound 6 (20 μmol/L) were separated by SDS-PAGE and western blots probed with antibodies to Mnk1 and 2, peIF4E, eIF4E and cPARP. Vehicle treated cells were included as control and all blots were reprobed for GAPDH for loading control.

[12] = system: fAR, Mnk1/2, peIF4E, cyclin D1 and cleaved PARP; assay: Western blot of lysates from LNCaP cells; type: cell-based, human; details: 0.6-20 μM, 24 hours
From the text: as §1
Equal protein concentrations from LNCaP cells treated with Compounds 16, 20 and 22 at different concentrations (0.6-20 μM) for 24 hours were separated by SDS-PAGE and western blots probed with antibodies to fAR, Mnk1/2, peIF4E, cyclin D1 and cleaved PARP. Vehicle treated cells were included as a control and all blots were reprobed for β-actin for loading control.

[13] = system: PC-3 cells; assay: Wound-healing assay, PC-3 cell migration; type: cell-based, human; details: 5 μM, 24 hours
Description: (§5) Wound healing assay and matrigel invasion assay were also conducted as described previously using highly metastatic PC-3 cells following treatment with 5 μM of RRs for 24 h.^8a,26
(§6) Based on previous studies with closely related compound,^8 the inhibitory effects of Compounds 16, 20 and 22 on cell migration were evaluated, using the human metastatic PC cell line, PC-3 by wound-healing assay. PC-3 cells (5×10^5 cells/well) were seeded on Boyden chamber, grown to confluence and scratches made at experimental tome zero. The cells were treated with indicated compounds (5 μM each) for 24 hours. Representative photomicrographs of initial and final wounds are shown at 100× magnification. […] At 24 hours after cell monolayers were wounded, control cells had completely filled in the scratched area.

[14] = system: MCF-7, MDA-MB-231, MDA-MB-468 and SKBR-3 human breast cancer cells; assay: MTT cell proliferation assay, four breast cancer cell lines together; type: cell-based; details: range across the four BC cell lines, read-out: GI50s, range over the BC cell lines
From the text: as §1, §2, §3

[15] = system: MDA-MB-231 cells; assay: Wound-healing assay, MDA-MB-231 cell migration; type: cell-based, human; details: 5 μM, 24 h
Description: as §5
as §6, with “BC” for “PC”, “MDA-MB-231” for “PC-3”, “h.” for “hours.”

[16] = system: MDA-MB-231 xenograft tumors; assay: MDA-MB-231 anti-tumor efficacy study (xenograft); type: in vivo
Description: All animal studies were performed according to the guidelines and approval of the Animal Care Committee of the University of Maryland School of Medicine, Baltimore (UMB). Female Athymic Nude mice or male SCID (Charles Rivers Laboratories or UMB facilities) at 4-6 weeks of age were maintained in a pathogen-free environment. MDA-MB-231 (10×10^6) cells were subcutaneously implanted into Athymic Nude mice and CWR22Rv1 (1×10^6) cells into male SCID mice. Mice bearing established tumors (˜100 mm^3) were randomized into treatment groups of 6 and dosed with vehicle (40% β-cyclodexdrin in ddH2O), or compounds 20 and 22 (i.p., formulated in 40% β-cyclodexdrin in ddH2O, once daily, 5 days a week for 28 days).
The National Cancer Institute (NCI) criteria^23 were used to determine tumor growth efficacy of our compounds. Thus, percent test or treatment/control (% T/C), defined as the ratio of the median tumor volume for the treated group versus control group, was calculated as % T/C=[(median tumor volume of treated group at day 28)/(median tumor volume of control group at day 28)]×100.
Indeed, the two compounds were equipotent (FIG. 9A). […] Representative photos of the tumor-bearing mice in the control and the two treatment groups at termination of experiment (day 28) are presented in FIG. 9B.

[17] = system: Mnk-1, peIF4E and their downstream targets; assay: Molecular analysis of MDA-MB-231 tumors; type: in vivo; details: MDA-MB-231 tumors from treated mice
From the text: To assess their in vivo mode of action, we evaluated the effects of Compounds 20 and 22 on Mnk-1, peIF4E and their downstream targets.

[18] = system: LNCaP human prostate carcinoma cells; details: previously reported in Ramamurthy V et al., read-out: GI50s LNCaP; cited from earlier work
[19] = system: CWR22Rv1 human prostate carcinoma cells; details: previously reported in Ramamurthy V et al., read-out: GI50s CWR22Rv1; cited from earlier work
[20] = system: PC-3 human prostate carcinoma cells; details: PC-3 cells; previously reported in Ramamurthy V et al.; read-out: GI50s PC-3; cited from earlier work
[21] = MDA-MB-231 xenograft mice, i.p. 20 mg/kg 5×/week over 28 days

Row | Structure (SMILES) | IC50 [1] | IC50 [2] | IC50 [3] | IC50 [4] | IC50 [5] | IC50 [6] | IC50 [7] | IC50 [8] | IC50 [9] | IC50 [10] | expression of total eIF4E [11] | expressions of Mnk1, Mnk2 and peIF4E [11] | formation of c-PARP (apoptosis) [11] | cleaved PARP (c-PARP) [12] | cyclin D1 [12] | expression of total eIF4E [12] | expressions of fAR, Mnk1 and Mnk2 [12] | migration of PC-3 cells [13] | other results
1 | CC(=O)C1=C(O)C=C2Oc3c(C(N)=O)c(O)cc(O)c3[C@]2(C)C1=O [Cerco., cercosporamide] | 43.6 µM | 47.9 µM | 26 µM | – | – | – | – | – | – | – | – | – | – | – | – | – | – | – | –
2 | CC1=C(/C=C/C(C)=C/C=C/C(C)=C\C(=O)Nc2ccccc2)C(C)(C)CCC1n1ccnc1 (centres unmarked) [Compound 16, (2Z,4E,6E,8E)-9-(3-(1H-imidazol-1-yl)-2,6,6-trimethylcyclohex-1-en-1-yl)-3,7-dimethyl-N-phenylnona-2,4,6,8-tetraenamide] | – | – | – | 1.9 µM | 1.74 µM | 2.54 µM | 1.73 µM | 2.69 µM | 1.28 µM | 8.91 µM | no noticeable effects | significantly and dose-dependently, reduced | dose-dependent formation of c-PARP | induced cleaved PARP | significant depletion | no noticeable effects | significantly and in a dose-dependent fashion, reduced | significantly inhibited migration | IC50 [14]: 1.74 to 2.54 µM
3 | CC1=C(/C=C/C(C)=C/C=C/C(C)=C\C(=O)NCc2ccc(O)cc2)C(C)(C)CCC1n1ccnc1 (centres unmarked) [Compound 22, (2Z,4E,6E,8E)-9-(3-(1H-imidazol-1-yl)-2,6,6-trimethylcyclohex-1-en-1-yl)-N-(4-hydroxybenzyl)-3,7-dimethylnona-2,4,6,8-tetraenamide] | – | – | – | 0.16 µM | 2.23 µM | 2.7 µM | 2.45 µM | 1.69 µM | 1.86 µM | 3.54 µM | no noticeable effects | significantly and dose-dependently, reduced | dose-dependent formation of c-PARP | induced cleaved PARP | significant depletion | no noticeable effects | significantly and in a dose-dependent fashion, reduced | significantly inhibited migration | migration of MDA-MB-231 cells [15]: significantly inhibited migration; body weight [16, 21]: did not lose body weight; signs of toxicity / adverse events [16, 21]: no apparent adverse events; suppression of tumor growth ([16]; MDA-MB-231 xenografts, i.p. 20 mg/kg 5×/week over 28 days): 85.4%; % T/C (treated/control median tumor volume) ([16]; MDA-MB-231 xenografts, i.p. 20 mg/kg 5×/week, day 28): 14.6%; Mnk1/2, peIF4E, cyclin D1 and Bcl-2 in tumors [17]: depletion; pro-apoptotic proteins Bad and Bax in tumors [17]: up-regulation
4 | CC1=C(/C=C/C(C)=C/C=C/C(C)=C/C(=O)O)C(C)(C)CCC1 [ATRA, all-trans retinoic acid] | 14.1 µM | 14.1 µM | 22.9 µM | – | – | – | – | – | – | – | – | – | – | – | – | – | – | – | IC50 [18]: 47.9 µM; IC50 [19]: 25.1 µM; IC50 [20]: 36.3 µM

Source: patent US10793525B2, “13-cis-RAMBA retinamides that degrade MNKs for treating cancer” (UNIVERSITY OF MARYLAND, BALTIMORE, priority 2014, dated 2020)
